Read-outs that look alike come from different tables or passages of the source.
What was measured:
[1] = Plasma pharmacokinetics of niraparib and M1 by validated LC-MS/MS after a single oral 300 mg dose of 14C-niraparib; type: in vivo; conditions: human; for AUC(0-inf): read-out: AUC0-inf (mean); for AUC(0-t): read-out: AUC0-last (mean); for half-life: read-out: t1/2 (mean) (converted); for Tmax: read-out: tmax (median)
Protocol: Dose reductions were allowed twice. […] All patients provided written informed consent. Blood sampling was done at the following time points: pre-dose, 1, 1.5, 2, 3, 4, 6, 9 and 12 hours (h) after administration and in the morning of Day 2, 3, 4, 5, 8, 11, 15 and 22. For each time point, a 10 mL K2EDTA blood collection tube was used (Vacutainer®, Becton, Dickinson and Company, Franklin Lakes, NJ, USA) and blood was drawn via a peripheral line. […] Separate aliquots were made for radioactivity measurements as well as LC-MS/MS and metabolite profiling experiments. All samples were stored at −80 °C. […] Gradient elution was applied using 20 mM ammonium acetate in water (mobile phase A) and 0.1% formic acid in acetonitrile-methanol (50:50, v/v; mobile phase B). […] Quality control samples were prepared and analysed together with the study samples. […] Analysis was done by a non-compartmental method using WinNonlin Phoenix Version 6.2.1 or higher (Pharsight Corporation, St. Louis, Missouri, USA).

[2] = Metabolite profiling in plasma, urine and faeces by LC-LSC-MSn; type: in vivo, human; conditions: for Amount excreted in urine (0–144 h) / Amount excreted total, urine and faeces (0–144 h) / Amount excreted in faeces (0–144 h): % of administered dose; for Plasma exposure: relative AUC0-168h (% of AUC0-168h from total 14C): 0-168 h
Protocol: Metabolite profiling was divided into two parts: metabolite screening and identification, and metabolite quantification. During the first part, inter-patient pooled samples were analysed to screen for the presence of metabolites. Afterwards, individual patient samples or within-patient pooled samples (depending on the matrix) were analysed and metabolites found during the screening phase were quantified. Plasma, urine and faeces samples were selected both for screening and quantification. Three time points were selected for screening of plasma samples. Besides the pre-dose, a sample around the tmax was chosen, because these samples contained the highest amount of radioactivity. It was also of interest to select a sample in which the amount of radioactivity was much higher than the amount of parent compound, because this is indicative of the presence of metabolites. Consequently, 4 h and 48 h were selected and screened for metabolites. Individual patient samples from 0 […] and 168 h were analysed and metabolites in these samples were quantified. All urine samples were pooled within patients, and afterwards these samples were pooled between patients. […] The same procedure was applied for faeces samples. Again, 24 h-interval pools were made, first within patients and then between patients. The latter were used for metabolite screening, whereas the first were analysed afterwards, during the quantification step. […] Plasma samples (pre-dose, 4 h and 48 h) were pooled by equal volumes. In addition, the individual samples (pre-dose, 4 h, 12 h, 24 h, 48 h, 72 h and 168 h) were analysed. Plasma samples were extracted once with acetonitrile-methanol (50:50, v/v). […] An aliquot of the clear supernatant was analysed for total radioactivity to determine extraction efficiency. The remaining supernatant was used for analysis by LC-MS^n in combination with off-line LSC (LC-LSC-MS^n). Urine samples were first pooled within patients. […] These samples were analysed without pre-treatment. […] Faeces homogenate samples were extracted once with 0.1% formic acid in acetonitrile. […] An aliquot of the clear supernatant was analysed for total radioactivity to determine extraction recovery. The remaining supernatant was used for LC-LSC-MS^n analysis. Samples were analysed by LC (Shimadzu, Kyoto, Japan) coupled to a linear ion trap mass spectrometer (Thermo Electron, Waltham, MA, USA) in combination with off-line LSC (LC-Linear Ion Trap LTQ XL Mass Spectrometry (MS)-LSC). To separate known and unknown metabolites, an HPLC gradient was applied. A flow rate of 1 mL/min was maintained during the following 50-min gradient: starting at 10%B and increasing to 36.25%B over 35 min, then to 90%B in 12 min. This was held for 2 min and then it was reverted back to the initial conditions of 10%B at 49 min. Mobile phase A consisted of 20 mM ammonium acetate in water and mobile phase B consisted of 0.1% formic acid in acetonitrile. Structural information on niraparib metabolites was obtained using Data Dependent Acquisition. Accurate mass measurements were performed to confirm the chemical structures of the metabolites. These measurements were performed on an Ultimate 3000 LC (Dionex) coupled to an LTQ Orbitrap XL MS (Thermo Electron, Waltham). The same gradient composition was applied. […] The metabolite profiles of ^14C-niraparib-derived radioactivity were determined for selected aliquots of extracts of plasma, urine and faecal homogenates using LC-MS/MS, fractionation and off-line LSC. After pre-treatment, samples were injected onto a Phenomenex Synergi Hydro-RP (250 × 4.6 mm, 4 μm) column. Data Dependent Acquisition was applied, causing the detection and fragmentation of the most abundant ions. Besides this, a parent list with possible metabolites was constructed, meaning that apart from the most abundant ions, also the ones with the masses in this parent list were further fragmentised for which MS^2 and MS^3 spectra were obtained. […]

[3] = Safety assessment (NCI CTCAE) in the mass balance study
Excerpt: The National Cancer Institute Common Terminology Criteria for Adverse Events (NCI CTCAE) grading system was used to describe the severity of the adverse events (AEs) that occurred. Haematology, blood chemistry and vital signs were also part of the safety assessment.

[4] = population pharmacokinetic analysis, all the patients in NOVA study; cited from earlier work
[5] = Protocol: Six evaluable patients were enrolled in this open-label mass balance clinical study (ClinicalTrials.gov identifier NCT02476552) and were admitted to the study center for at least 10 days, with the 11th day being optional. […] From the moment of administration, all urine and faeces were collected. […] Dose reductions were allowed twice. The study was conducted in conformance with the International Conference on Harmonisation (ICH) guidelines for Good Clinical Practice (GCP) and in accordance with the Declaration of Helsinki. The protocol was approved by the Netherlands Cancer Institute Independent Ethics Committee. All patients provided written informed consent.
For the purpose of the mass balance study and metabolite profiling, urine and faecal samples were collected. Urine was collected at pre-determined intervals: pre-dose, 0–12 h, 12–24 h, 24–36 h and 36–48 h after administration. From Day 3 onwards, urine was collected over periods of 24 h. Urine was stored in polyethylene containers at 2–8 °C for the duration of the collection period. After each collection period, urine samples were mixed thoroughly, weighed, portioned into aliquots, and then frozen at ≤ − 70 °C. Separate aliquots were made in polypropylene tubes for analysis by LC-MS/MS, metabolite profiling and TRA analysis by LSC.
Faeces were collected and weighted per stool. Sample pre-treatment involved diluting and homogenising the faeces by adding water (1:3 w/v; B. Braun). A T25 basic Ultra Turrax (IKA Works, Staufen, Germany) was used to homogenise the samples before aliquoting. Urine and faeces sample collection occurred according to the following requirements: • If the total radioactivity in the Day 14 faecal/urine sample is detected to be higher than 0.1% and the total recovery of accumulative radioactivity ≤85% (faeces and urine) of the radioactivity of the dose given, faecal/urine samples will be collected every 24 h through Day 21. • If the total radioactivity in the Day 21 faecal/urine sample is detected to be higher than 0.1% and the total recovery of accumulative radioactivity ≤85% (faeces and urine), faecal/urine samples will continue to be collected every 24 h. • Faecal/urine sample collection will stop after Day 21, if the recovered radioactivity is below 1% (per 24 h) for the two consecutive days prior to Day 21 (Day 19 and Day 20). If this is not the case, collection will stop as soon as the recovered radioactivity is below 1% (per 24 h) for two consecutive days after Day 21.
TRA analysis was performed on a Liquid Scintillation Counter Tri-Carp 2910 (PerkinElmer, Groningen, The Netherlands). Aliquots of 200 μL of whole blood, plasma and faeces (all in duplicate), and 1 mL of urine (in singular) were transferred to scintillation vials. Whole blood and faecal samples needed to be moderately translucent and colourless. Therefore, 2-propanol (1 mL) was added to faecal samples to dissolve fibres, NaEDTA (0.1 mL) was added to whole blood to reduce foaming, and Solvable™ (1 mL) was added to both matrices to solubilise tissue. Hydrogen peroxide 30% (0.4 mL to faeces and 0.5 mL to whole blood) was added to reduce colour intensity. These samples were placed in a water bath (at least 40 °C; GF1086, Salm en Kipp, Breukelen, The Netherlands) to stimulate the chemical processes. Finally, 10 mL of Ultima Gold™ Cocktail (PerkinElmer) was added and the samples were analysed, either for 60 min or until the 2-sigma error was less than or equal to 5%, whichever came first. A scintillant blank was used to provide as a background sample.

[6] = daily dose of 300 mg; cited from earlier work
[7] = test system: recurrent, platinum sensitive, ovarian, fallopian tube, or primary peritoneal cancer; conditions: adult patients in complete or partial response to platinum-based chemotherapy; cited from earlier work
[8] = plasma, single oral dose 300 mg 14C-niraparib, n = 6
[9] = % of administered dose, up to 144 h
[10] = % of administered radioactive dose, through 504 h post-dose

Compound `O=C(O)c1cccc2cn(-c3ccc([C@@H]4CCCNC4)cc3)nc12` [Compound M1, Amide hydrolysed niraparib] has a Cmax [1, 8] of 476 ng/mL, an AUC(0-inf) [1, 8] of 41200 ng·h/mL and an AUC(0-t) [1, 8] of 40800 ng·h/mL. For the same compound, the half-life [1, 8] was 78.4 h, the Tmax [1, 8] was 9.02 h and the “Amount excreted in urine (0–144 h)” value [2] was 20.0%. For the same compound, the “Amount excreted total, urine and faeces (0–144 h)” value (shortened to “Amount excreted total”) [2] was 22.4%, the “Amount excreted in faeces (0–144 h)” value ([2]; listed as M1 (4)) was 2.4% and the “Amount excreted in urine (0–144 h)” value ([2]; listed as M1 (4)) was 20%. For the same compound, the “Plasma exposure: relative AUC0-168h (% of AUC0-168h from total 14C)” value ([2]; listed as M1 (4)) was 9.3%.

For `COC(=O)c1cccc2cn(-c3ccc([C@@H]4CCCNC4)cc3)nc12` [Methylated M1 (7), Methylated M1], the “Amount excreted in urine (0–144 h)” value [2] was “not detected” and the “Plasma exposure: relative AUC0-168h (% of AUC0-168h from total 14C)” value [2] was 2.5%.

For M1-glucuronide [Compound M10], the “Amount excreted in urine (0–144 h)” value [2] was 6.2% and the “Plasma exposure: relative AUC0-168h (% of AUC0-168h from total 14C)” value [2] was 55.7%.

With M1-glucuronide [M10 (2)] the “Amount excreted in urine (0–144 h)” value [2] was 6.2%, the “Amount excreted total” value [2] was 6.2% and the “Plasma exposure: relative AUC0-168h (% of AUC0-168h from total 14C)” value [2] was 26.8%.

For M1-glucuronide [M10 (3)], the “Amount excreted in urine (0–144 h)” value [2] was “<LLOQ” and the “Plasma exposure: relative AUC0-168h (% of AUC0-168h from total 14C)” value [2] was 22.9%.

In the case of `NC(=O)c1cccc2cn(-c3ccc([C@@H]4CCCNC4)cc3)nc12` [niraparib, 2-{4-[(3S)-piperidin-3-yl]phenyl}-2H-indazole-7-carboxamide], the “Grade of AEs considered likely to be related to study treatment” value ([3]; NCI CTCAE) is reported as at most 2 grade, the “TEAEs leading to study drug discontinuation or death” value ([3]; six patients) is reported as “no TEAEs led to study drug discontinuation or death” and the “Total number of adverse events reported” value ([3]; six patients, single oral dose 300 mg) is reported as 21. The Vd/F ([1]; in vivo, oral, cancer patients, across the clinical studies, read-out: apparent Vd/F, collective conclusion) was at least 1000 L, the Cmax [1, 8] was 540 ng/mL and the AUC(0-inf) [1, 8] was 18500 ng·h/mL. The AUC(0-t) [1, 8] was 18400 ng·h/mL, the Vd/F ([1]; plasma, single oral dose 300 mg 14C-niraparib, n = 6, read-out: Vd/F (mean)) was 2170 L and the half-life [1, 8] was 87.4 h. The Tmax [1, 8] was 2.49 h, the “Amount excreted in faeces (0–144 h)” value ([2]; listed as Niraparib (5)) was 18.7% and the “Amount excreted in urine (0–144 h)” value ([2]; listed as Niraparib (5)) was 10.5%. For the same compound, the “Amount excreted total” value ([2]; listed as Niraparib (5)) was 29.2%, the “Amount excreted in faeces (0–144 h)” value ([2]; listed as niraparib (5)) was 18.7% and the “Amount excreted in urine (0–144 h)” value ([2]; listed as niraparib (5)) was 10.5%. The “apparent Vd/F” value [4] was 1074 L, the “Total radioactivity recovered in excreta (urine and faeces)” value [5, 9] was 71.6% and the “Total radioactivity recovered in faeces” value [5, 9] was 31.6%. For the same compound, the “Total radioactivity recovered in urine” value [5, 9] was 40%, the “Mean total radioactivity recovered in excreta (urine and faeces)” value [5, 10] was 86.3% and the “Mean total radioactivity recovered in faeces” value [5, 10] was 38.8%. For the same compound, the “Mean total radioactivity recovered in urine” value [5, 10] was 47.5%, the “Administered dose recovered in excreta” value ([5]; within the first 4 days (96 h) after dosing) was “over 50%” and the tolerability [6] was “well tolerated”. The “progression-free survival (PFS)” value [7] was “met its primary endpoint of improving progression-free survival”.

For M1-glucuronide [M10 (1)], the “Amount excreted in urine (0–144 h)” value [2] was “<LLOQ” and the “Plasma exposure: relative AUC0-168h (% of AUC0-168h from total 14C)” value [2] was 6.0%.

Reference: PMC5694528, “Human mass balance study and metabolite profiling of ^14C-niraparib, a novel poly(ADP-Ribose) polymerase (PARP)-1 and PARP-2 inhibitor, in patients with advanced cancer” (Investigational New Drugs, 2017)
